pKd: −log10 of the molar value.
Experiments:
PDIA3 [1] = molecular target: T1, PDIA3 (Homo sapiens, UniProt P30101); test: Fluorescence quenching titration of PDIA3 intrinsic fluorescence; type: binding; settings: for Stern-Volmer constant (K SV): 0.5∗10^−6 M PDIA3 in reduced conditions, pH 7.4, 25°C, flavonoid 0 to 10∗10^−6 M, mean and standard deviation; for bimolecular quenching rate constant (K q): K SV = K q τ0 with τ0 of the order of 10^−8 s; for bimolecular quenching rate constant (K q) / pKd / binding constant (K b): reduced PDIA3, pH 7.4, 25°C; for pKd: K d = 1/K b, read-out: dissociation constant (K d); for binding constant (K b): equation of Bi et al., reiterative calculation of Sun et al.
T1 construct: made in house; host or cells: E. coli BL21 (vector pET21)
T1 sequence (P30101 25-505): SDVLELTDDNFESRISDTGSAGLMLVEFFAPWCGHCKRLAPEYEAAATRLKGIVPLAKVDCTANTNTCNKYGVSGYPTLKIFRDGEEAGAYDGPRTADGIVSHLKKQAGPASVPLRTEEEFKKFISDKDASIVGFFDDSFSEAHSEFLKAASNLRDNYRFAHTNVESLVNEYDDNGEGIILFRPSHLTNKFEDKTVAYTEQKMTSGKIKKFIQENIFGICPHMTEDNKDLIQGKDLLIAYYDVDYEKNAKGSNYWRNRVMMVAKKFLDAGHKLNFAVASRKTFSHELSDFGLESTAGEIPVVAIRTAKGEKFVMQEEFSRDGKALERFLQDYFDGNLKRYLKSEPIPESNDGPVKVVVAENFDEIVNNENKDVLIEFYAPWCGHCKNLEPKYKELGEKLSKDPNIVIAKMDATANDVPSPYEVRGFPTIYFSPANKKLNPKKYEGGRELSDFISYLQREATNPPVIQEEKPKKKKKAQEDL
Procedure: Quantitative analysis of the interaction between individual flavonoids and PDIA3 was performed by fluorimetric titration. […] Briefly, solution of PDIA3 (0.5 μM) or a and a′ domains (1 μM) in phosphate buffered saline (PBS) containing DTT 0.1 mM and EDTA 0.2 mM were titrated in quartz cuvette by stepwise additions, at 5 min time intervals, of individual flavonoid solution (1 mM in PBS/ethanol 50 : 50 v/v freshly prepared from a 20 mM stock solution in DMSO). […] To minimize the inner-filter effect we limited the highest concentration reached in the titration test up to 10 μM. All experiments were carried out at 25°C. Each spectrum was the mean of three repeated scans. Fluorescence spectra of appropriate blanks (flavonoids without proteins) were recorded under the same experimental conditions and subtracted from the corresponding flavonoid-protein system to correct the fluorescence background.
Quenching analysis was performed on PDIA3 (0.5 μM), in the reduced form, by adding stepwise increasing concentration of each molecule and recording the protein fluorescence spectra. For some flavonoids the analysis was extended to isolate a′ domain (1 μM), always in the reduced form. […] For each ligand molecule the Stern-Volmer quenching constant was obtained by linear regression of plots of F 0/F versus [L].
The Stern-Volmer quenching constant may be expressed as K SV = K q τ 0, where K q is the quencher rate coefficient and τ 0 is the average lifetime of the emissive excited state of the protein in the absence of the quencher.
The number of binding sites (n) and the binding constant (K b) were obtained by plotting log((F 0 − F)/F) versus log(1/([L t] − n(F 0 − F)[P t]/F 0)) using the reiterative calculation process described by Sun et al., assuming a similar affinity for each binding site.

PDIA3 [2] = molecular target: T1, PDIA3; test: Differential scanning fluorimetry (thermal stability, SYPRO Orange); type: binding; settings: for Increase in melting temperature (T m) of PDIA3: 50 μM flavonoid, reduced PDIA3 1 μM; for Effect on PDIA3 stability (T m): flavonoid up to 50 μM, mainly at the highest concentration
Procedure: Protein stability was tested by the fluorescence-based thermal stability assay or differential scanning fluorimetry (DSF) developed by Pantoliano and coworkers. DSF records the fluorescence emission signal from the binding of a dye (SYPRO orange) to the exposed hydrophobic patches upon protein unfolding. Fluorescence measurements were performed using a CFX96 Connect RT-PCR instrument (BioRad). 18 μl aliquots of protein solution (1 μM), freshly diluted in Tris Buffered saline (50 mM TrisHCl, pH 8.0, 150 mM NaCl) containing 0.1 mM DTT, 0.2 mM EDTA, and 1 : 1000 dilution of SYPRO Orange (50 mM stock solution in DMSO), were distributed in a 96-well plate. Sample wells were addition of increasing concentration (up to 50 μM) of individual flavonoid by adding 2 μl of 10-fold concentrated stock solutions freshly prepared. As control, the protein solution was added with 2 μl of the dilution buffer. A melting point analysis was recorded increasing the temperature from 20 to 95°C with an increment of 0.5°C and reading, at each temperature, the fluorescence in fluorescence resonance energy transfer mode (FRET). Each measure was the average of three sample wells reading and each DSF experiment was repeated at least three times. To calculate T m values, DSF data from the melting curve were exported and fitted to Boltzman equation using GraphPad software. Effect of flavonoids was evaluated comparing the T m values in presence and absence of each molecule.

PDIA3 [3] = molecular target: T1, PDIA3; test: Disulfide reductase activity with DiE-GSSG fluorogenic probe; type: biochemical; settings: 20 μM flavonoid (Figure 7), DiE-GSSG substrate
Procedure: Disulfide reductase activity of ERp57 was monitored by sensitive fluorescent assay using dieosin glutathione disulfide (DiE-GSSG) as fluorogenic probe. DiE-GSSG was synthesized by the reaction of eosin isothiocyanate with oxidized glutathione (GSSG) according to the method of Raturi and Mutus with some modifications. DiE-GSSG concentration was determined spectrophotometrically (ℇ 525 = 88,000 M^-1 cm^−1). Disulfide reductase activity was assayed in a reaction buffer containing 2 mM EDTA, 150 nM DiE-GSSG, and 5 μM DTT in PBS. A 20 μl aliquot of a stock solution of PDIA3 (1 μM) was added to the reaction mixture and DiE-GSSG reduction was monitored at 545 nm with excitation at 520 nm, at 25°C with continuous stirring. Reductase activity was calculated as the initial velocity in fluorescence increase. To test the effect of flavonoids on PDIA3 activity, the protein stock solution was previously incubated for 15 minutes at room temperature with different concentrations of each flavonoid and then a 20 μl aliquot subjected to assay in a reaction buffer containing the same concentration of the flavonoid.
Fluorescence quenching constant (K SV) values were given as means ± standard deviation and values of disulfide reductase activity were expressed in % of control sample ± relative standard deviation. All measurements were performed at least three times. Dunnett's test was used to compare the obtained reductase activity data with the activity of the untreated protein and a p value of <0.01 was considered as statistically significant.

| SMILES | Stern-Volmer constant (K SV) (PDIA3 [1]) [M⁻¹] | bimolecular quenching rate constant (K q) (PDIA3 [1]) [M⁻¹ s⁻¹] | pKd (PDIA3 [1]) | binding constant (K b) (PDIA3 [1]) [M⁻¹] | Increase in melting temperature (T m) of PDIA3 (PDIA3 [2]) | Effect on PDIA3 stability (T m) (PDIA3 [2]) | Inhibition of disulfide reductase (redox) activity (PDIA3 [3]) |
| --- | --- | --- | --- | --- | --- | --- | --- |
| O=c1c(O)c(-c2ccc(O)cc2)oc2cc(O)cc(O)c12 [Kaempferol, kaempferol] | 28423 ± 982 | 2.84e+12 | 4.41 | 26000 | increased more than three degrees | – | – |
| C[C@@H]1O[C@@H](OC[C@H]2O[C@@H](Oc3c(-c4ccc(O)c(O)c4)oc4cc(O)cc(O)c4c3=O)[C@H](O)[C@@H](O)[C@@H]2O)[C@H](O)[C@H](O)[C@H]1O [Rutin, rutin] | 45197 ± 465 | 4.52e+12 | 4.66 | 45500 | – | – | – |
| COc1cc(-c2oc3cc(O)cc(O)c3c(=O)c2O)ccc1O [Isorhamnetin, isorhamnetin] | 36109 ± 1271 | 3.61e+12 | 4.51 | 32500 | – | similar, but less pronounced, effect | – |
| O=c1c(O)c(-c2ccc(O)c(O)c2)oc2cc(O)ccc12 [Fisetin, fisetin] | 33164 ± 542 | 3.32e+12 | 4.57 | 36700 | increased more than three degrees | – | – |
| O=c1c(O[C@@H]2O[C@H](CO)[C@@H](O)[C@H](O)[C@H]2O)c(-c2ccc(O)c(O)c2)oc2cc(O)cc(O)c12 [Isoquercetin, isoquercetin] | 25738 ± 367 | 2.57e+12 | 4.46 | 29100 | – | – | – |
| C[C@@H]1O[C@@H](Oc2c(-c3ccc(O)c(O)c3)oc3cc(O)cc(O)c3c2=O)[C@H](O)[C@H](O)[C@H]1O [Quercitrin, quercitrin] | 29211 ± 483 | 2.92e+12 | 4.51 | 32300 | – | – | – |
| Oc1cc(O)c2cc(O)c(-c3ccc(O)c(O)c3)[o+]c2c1 [Cyanidin, cyanidin] | 29761 ± 635 | 2.98e+12 | 4.47 | 29300 | – | similar, but less pronounced, effect | approximately 20% |
| COc1ccc(-c2cc(=O)c3cc(OC)ccc3o2)c(OC)c1 [Trimethoxyflavone, 6,2′,4′-trimethoxyflavone] | 22209 ± 484 | 2.22e+12 | 4.26 | – | – | – | – |
| O=c1cc(-c2ccc(O)c(O)c2)oc2cc(O[C@@H]3O[C@H](CO)[C@@H](O)[C@H](O)[C@H]3O)cc(O)c12 [Luteolin-7-glucoside, luteolin-7-glucoside] | 31601 ± 484 | 3.16e+12 | 4.54 | 34600 | – | – | – |
| COc1cc(O)c2c(=O)c(O)c(-c3ccc(O)c(O)c3)oc2c1 [Rhamnetin, rhamnetin] | 28462 ± 295 | 2.85e+12 | 4.48 | 30100 | – | similar, but less pronounced, effect | – |
| COc1c(-c2ccc(O)c(O)c2)oc2cc(O)cc(O)c2c1=O [3-O-Methyl-quercetin, 3-O-methyl quercetin] | 41110 ± 794 | 4.11e+12 | 4.66 | 45700 | – | – | – |
| O=c1cc(-c2ccc(O)cc2)oc2cc(O[C@@H]3O[C@H](CO)[C@@H](O)[C@H](O)[C@H]3O)cc(O)c12 [Apigenin-7-glucoside, apigenin-7-glucoside] | 43961 ± 673 | 4.4e+12 | 4.68 | 47300 | – | – | – |
| O=c1c(-c2ccc(O)cc2)coc2cc(O)cc(O)c12 [Genistein, genistein] | 22953 ± 435 | 2.3e+12 | 4.39 | 24400 | – | similar, but less pronounced, effect | – |
| O=C1C[C@@H](c2ccc(O)cc2)Oc2cc(O)cc(O)c21 [Naringenin, naringenin] | 16900 ± 352 | 1.69e+12 | 4.24 | 17300 | – | – | – |

Reference: article PMC5164911, “Comparative Analysis of the Interaction between Different Flavonoids and PDIA3” (Oxidative Medicine and Cellular Longevity, 2016)
